For one compound, Activity and inhibition results are on record in ChEMBL document CHEMBL6087454, “Identification of Novel Organo-Se BTSA-Based Derivatives as Potent, Reversible, and Selective PPARγ Covalent Modulators for Antidiabetic Drug Discovery” (J Med Chem, 2025).

Activity calls are given as the source filed them. No cut-off for these calls is given here.

Data set [1] has as its target T1, Peroxisome proliferator-activated receptor gamma (Homo sapiens) (UniProt P37231).
T1 sequence (whole entry): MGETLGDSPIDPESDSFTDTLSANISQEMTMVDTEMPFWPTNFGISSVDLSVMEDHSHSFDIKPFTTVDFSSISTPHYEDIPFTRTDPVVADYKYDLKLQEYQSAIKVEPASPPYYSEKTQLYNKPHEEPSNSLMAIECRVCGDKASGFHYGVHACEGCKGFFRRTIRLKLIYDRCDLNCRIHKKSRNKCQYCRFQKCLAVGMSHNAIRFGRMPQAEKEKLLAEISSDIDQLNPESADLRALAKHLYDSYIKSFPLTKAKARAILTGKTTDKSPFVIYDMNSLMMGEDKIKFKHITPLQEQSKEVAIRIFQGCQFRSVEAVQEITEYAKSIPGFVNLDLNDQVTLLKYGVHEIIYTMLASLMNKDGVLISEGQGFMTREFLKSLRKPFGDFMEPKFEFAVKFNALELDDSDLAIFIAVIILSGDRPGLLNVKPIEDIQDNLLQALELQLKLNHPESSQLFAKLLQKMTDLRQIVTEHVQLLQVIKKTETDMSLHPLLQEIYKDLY
The data set can be described thus: Partial agonist activity at recombinant GST-tagged human PPAR-gamma ligand binding domain (E235 to Y505 residues) extracted from Escherichia coli BL21 (DE3) cells by TR-FRET assay. As to conditions: filed as partial agonist.

The next data set is filed under the species Homo sapiens. The data set can be described thus: Binding affinity to PPAR-beta (unknown origin) at 0.5 uM in presence of fluormone pan-PPAR green tracer by TR-FRET assay.
Data set [2] concerns the target T1, Peroxisome proliferator-activated receptor gamma (Homo sapiens). In words: Covalent binding affinity to recombinant PPAR-gamma ligand binding domain (unknown origin) at Cys285 residue at 0.4 uM incubated for 30 mins by rhodamine-maleimide staining based SDS-PAGE analysis. The note with it: filed as partial agonist.
Data set [3] has the same target. In words: Reversible covalent binding affinity to recombinant GST-tagged human PPAR-gamma ligand binding domain (E235 to Y505 residues) extracted from Escherichia coli BL21 (DE3) cells at 500 nM measured upto 240 mins by TR-FRET assay. As to conditions: filed as partial agonist.
The test system of data set [4] is 3T3-L1. In words: Inhibition of adipogenesis in mouse 3T3-L1 cells assessed as downregulation of aP2 gene expression at 1 uM measured after 48 hrs by RT-qPCR analysis. It is filed as functional, cell-based. In general terms: In qPCR the cycle at which signal appears reflects the starting amount.
Data set [5] concerns 3T3-L1. In words: Inhibition of adipogenesis in mouse 3T3-L1 cells assessed as downregulation of C/EBPalpha gene expression at 1 uM measured after 48 hrs by RT-qPCR analysis. It is filed as functional, cell-based.
Data set [6] has as its system 3T3-L1. The data set can be described thus: Insulin sensitizing activity in mouse 3T3-L1 cells assessed as upregulation of Glut4 gene expression at 1 uM measured after 48 hrs by RT-qPCR analysis. It is filed as functional, cell-based.
Data set [7] has as its system Mus musculus. In words: Antidiabetic activity in male db/db mouse model assessed as reduction in random blood glucose level administered intraperitoneally for 4 weeks. It is filed as functional, organism-based. The note with it: dose 2.5-10 mg/kg/day, route ip.
The test system of data set [8] is Mus musculus. In words: Antidiabetic activity in male db/db mouse model assessed as improvement in insulin tolerance at 2.5 to 10 mg/kg/day, ip preadministered for 4 weeks followed by glucose administration after 4 to 6 hrs of fasting and measured after 120 mins by intraperitoneal insulin tolerance test. It is filed as functional, organism-based. As to conditions: dose 2.5-10 mg/kg/day.

A short description of data set [9]: Toxicity in male db/db mouse model assessed as effect on heart morphology at 2.5 to 10 mg/kg/day, ip administered for 4 weeks. It is filed as organism-based. As to conditions: in vivo, 672 h, dose 2.5-10 mg/kg/day.
Data set [10] in a line: Toxicity in male db/db mouse model assessed as effect on spleen weight at 2.5 to 10 mg/kg/day, ip administered for 4 weeks. Format: organism-based. The note with it: in vivo, 672 h, dose 2.5-10 mg/kg/day.
Data set [11] can be described thus: Toxicity in male db/db mouse model assessed as effect on spleen morphology at 2.5 to 10 mg/kg/day, ip administered for 4 weeks. Format: organism-based. As to conditions: in vivo, 672 h, dose 2.5-10 mg/kg/day.
Data set [12] can be described thus: Toxicity in male db/db mouse model assessed as effect on kidney weight at 2.5 to 10 mg/kg/day, ip administered for 4 weeks. As to conditions: in vivo, 672 h, dose 2.5-10 mg/kg/day. Format: organism-based.
Data set [13] is described as follows: Toxicity in male db/db mouse model assessed as effect on liver morphology at 2.5 to 5 mg/kg, ip administered for 4 weeks. It is filed as organism-based. As to conditions: in vivo, 672 h, dose 2.5-5 mg/kg.
Data set [14] in a line: Toxicity in male db/db mouse model assessed as decrease in liver weight at 10 mg/kg, ip administered for 4 weeks. Format: organism-based. As to conditions: in vivo, 672 h.
A short description of data set [15]: Toxicity in male db/db mouse model assessed as increase in white adipose tissue weight at 2.5 to 10 mg/kg/day, ip administered for 4 weeks. As to conditions: in vivo, 672 h, dose 2.5-10 mg/kg/day. It is filed as organism-based.
The nature of data set [16]: Toxicity in male db/db mouse model assessed as increase in brown adipocytes size at 2.5 to 10 mg/kg/day, ip administered for 4 weeks by H and E staining based analysis. Format: organism-based. The note with it: in vivo, 672 h, dose 2.5-10 mg/kg/day.
Data set [17] concerns Mus musculus. The data set can be described thus: Antidiabetic activity in male db/db mouse model assessed as increase in Glut4 protein abundance in white adipose tissue at 2.5 to 10 mg/kg/day, ip administered for 4 weeks by Western blotting analysis. Format: functional, organism-based. The note with it: dose 2.5-10 mg/kg/day. (In general: Immunoblotting shows a protein as a band on a membrane.)

Data set [18] concerns Mus musculus. In words: Antidiabetic activity in male db/db mouse model assessed as decrease in PDK4 protein abundance in white adipose tissue at 2.5 to 10 mg/kg/day, ip administered for 4 weeks by Western blotting analysis. Format: functional, organism-based. The note with it: dose 2.5-10 mg/kg/day.
The subject of data set [19] is Mus musculus. The data set can be described thus: Antidiabetic activity in male db/db mouse model assessed as increase in ADIPOQ protein abundance in liver at 2.5 to 10 mg/kg/day, ip administered for 4 weeks by Western blotting analysis. Format: functional, organism-based. The note with it: dose 2.5-10 mg/kg/day.
The test system of data set [20] is Mus musculus. The data set can be described thus: Effect on cdk5 protein expression in male db/db mouse white adipose tissue at 2.5 to 10 mg/kg/day, ip administered for 4 weeks by Western blotting analysis. Format: functional, organism-based. As to conditions: dose 2.5-10 mg/kg/day.
For data set [21], the system named is Mus musculus. In words: Antidiabetic activity in male db/db mouse model assessed as downregulation of PPARgamma gene expression in white adipose tissue at 2.5 to 10 mg/kg/day, ip administered for 4 weeks by RT-qPCR analysis. It is filed as functional, organism-based. As to conditions: dose 2.5-10 mg/kg/day.
Data set [22] deals with Mus musculus. The data set can be described thus: Antidiabetic activity in male db/db mouse model assessed as downregulation of C/EBPalpha gene expression in white adipose tissue at 2.5 to 10 mg/kg/day, ip administered for 4 weeks by RT-qPCR analysis. It is filed as functional, organism-based. The note with it: dose 2.5-10 mg/kg/day.
Data set [23] has as its system Mus musculus. In words: Antidiabetic activity in male db/db mouse model assessed as downregulation of SOCS3 gene expression in liver at 2.5 to 10 mg/kg/day, ip administered for 4 weeks by RT-qPCR analysis. As to conditions: dose 2.5-10 mg/kg/day. Format: functional, organism-based.

With `Cc1ccc(S(=O)(=O)Oc2ccc(S3(=O)=N[Se]c4cc(OS(=O)(=O)c5ccc(C)cc5)ccc43)cc2)cc1` (centres undefined), the result (in data set [1]; in [2]; in data set [3]; in the data set with 3T3-L1 [6]; with Mus musculus [8]; in the data set on Mus musculus [17]) was Active. The outcome in the data set on Mus musculus [18], with Mus musculus [19], with Mus musculus [21], in the data set on Mus musculus [22] and in the data set with Mus musculus [23] was Active. Also, the outcome in the data set filed under Homo sapiens and with Mus musculus [20] was inactive. Besides, the inhibition result in the data set on 3T3-L1 [4] and in the data set with 3T3-L1 [5] was “Active” each time. The Activity result with Mus musculus [7] is “Dose-dependent-effect”; in data set [9], “Non-toxic”; in [10], “Non-toxic”; in data set [11], “Non-toxic”; in [12], “Non-toxic”; in data set [13], “Non-toxic”. The Activity result in [14] is on record as “Toxic”; in data set [15], “Non-toxic”; in [16], “Non-toxic”.
